Measured values reported in US20240041769A1, “COMPOSITIONS AND METHODS FOR DELIVERY OF ANTICANCER AGENTS WITH IMPROVED THERAPEUTIC INDEX” (NanoTech Pharma Inc., priority 2020, published 2024).

Tests used:
[1] = In-vivo pharmacokinetic study, intravenous; parameters: species or system BALB/c nude mice; settings: mice, free drug solutions
Protocol: In-vivo pharmacokinetic study of free afatinib and nintedanib combination (data not shown), and AFA/NIN-L (1:5 AFA:NIN molar ratio) were carried out in BALB/c nude mice. The preparation of the PEGylated AFA/NIN-L with TEA-SOS used as the trapping agent was described in the Experimental Method section. The mixture of afatinib and nintedanib free drug cocktail and PEGylated AFA/NIN-L with a molar ratio of 1:5 were administered intravenously via the tail vein into the mice and the plasma concentration of both AFA and NIN was monitored over time. Doses of the all drug formulations were 7.0 mg/kg of afatinib free base (10.3 mg/kg afatinib dimaleate) and 38.9 mg/kg of nintedanib free base (46.8 mg/kg nintedanib […]). After intravenous administration, blood was collected at multiple time points by cardiac puncture (3 mice per time point) and placed into EDTA coated micro containers. The samples were centrifuged to separate plasma, and plasma was transferred to another tube. Then, AFA and NIN plasma levels were quantified with LC-MS. PK parameters were then calculated from measured AFA and NIN plasma levels.

[2] = clinical studies, oral afatinib; cited from earlier work

SMILES | elimination after IV administration [1] | treatment-related grade ≥3 AE: diarrhea [2] | treatment-related grade ≥3 AE: rash/acne [2] | treatment-related grade ≥3 AE: stomatitis/mucositis [2]
CN(C)C/C=C/C(=O)Nc1cc2c(Nc3ccc(F)c(Cl)c3)ncnc2cc1O[C@H]1CCOC1 [AFA, Afatinib] | rapidly eliminated | 5.4-14.4% | 9.7-16.2% | 5.4-8.7%
COC(=O)c1ccc2c(c1)NC(=O)/C2=C(\Nc1ccc(N(C)C(=O)CN2CCN(C)CC2)cc1)c1ccccc1 [NIN, Nintedanib] | rapidly eliminated |  |  | 
